Laboratory results published in PubChem BioAssay AID328 (DTP/NCI, 2004).
“And” between values parts separate entries of the source, which are not always exact repeats. Identical values can stand only once. Inconclusive results and toxic doses are left out.

Tested on: BDF1 mice, P388 leukemia ip, median survival T/C
Assay: NCI In Vivo Anticancer Drug Screen. Data for tumor model P388 Leukemia (intraperitoneal) in B6D2F1 (BDF1) mice
Settings: endpoint: median survival time, higher = longer survival
Outline: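 Reported as T/C, where T is the survival measurement in dosed animals and C the same measurement in vehicle controls.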

[1] = dose: 50.0 mg/kg/injection, schedule: Q01DX009 (ip), vehicle: saline
[2] = dose: 200.0 mg/kg/injection, schedule: Q01DX009 (ip), vehicle: saline
[3] = dose: 100.0 mg/kg/injection, schedule: Q01DX009 (ip), vehicle: saline with Tween-80
[4] = dose: 200.0 mg/kg/injection, schedule: Q01DX009 (ip), vehicle: saline with Tween-80
[5] = dose: 25.0 mg/kg/injection, schedule: Q04DX003 (ip), vehicle: saline with Tween-80
[6] = dose: 50.0 mg/kg/injection, schedule: Q01DX009 (ip), vehicle: saline with Tween-80

`O=C(O)CSc1cc(-c2ccc(Cl)cc2)s[s+]1` was tested, and the T/C (dose: 1.56 mg/kg/injection, schedule: Q01DX009 (ip), vehicle: water) was 104 % of control, the T/C (dose: 2.0 mg/kg/injection, schedule: Q04DX003 (ip), vehicle: water) was 100 % of control and the T/C (dose: 3.12 mg/kg/injection, schedule: Q01DX009 (ip), vehicle: water) was 115 % of control. The T/C (dose: 4.0 mg/kg/injection, schedule: Q04DX003 (ip), vehicle: water) was 112 % of control, the T/C (dose: 6.25 mg/kg/injection, schedule: Q01DX009 (ip), vehicle: water) was 112 % of control and the T/C (dose: 6.25 mg/kg/injection, schedule: Q04DX003 (ip), vehicle: water) was 117 % of control. For the same compound, the T/C (dose: 8.0 mg/kg/injection, schedule: Q04DX003 (ip), vehicle: water) was 100 % of control, the T/C (dose: 12.5 mg/kg/injection, schedule: Q01DX009 (ip), vehicle: water) was 107 % of control and the T/C (dose: 12.5 mg/kg/injection, schedule: Q04DX003 (ip), vehicle: water) was 100 % of control. The T/C (dose: 16.0 mg/kg/injection, schedule: Q04DX003 (ip), vehicle: water) was 90 % of control, the T/C (dose: 25.0 mg/kg/injection, schedule: Q04DX003 (ip), vehicle: water) was 97 % of control and the T/C (dose: 50.0 mg/kg/injection, schedule: Q04DX003 (ip), vehicle: water) was 97 % of control.
For `Oc1ccccc1C=Nc1ccccc1.Oc1ccccc1C=Nc1ccccc1.[Ni+2]`, the T/C (dose: 25.0 mg/kg/injection, schedule: Q04DX003 (ip), vehicle: saline sonified) was 100 % of control and the T/C (dose: 50.0 mg/kg/injection, schedule: Q04DX003 (ip), vehicle: saline sonified) was 113 % of control.
For `CC(=O)C(C)=P(c1ccccc1)(c1ccccc1)c1ccccc1`, the T/C (dose: 25.0 mg/kg/injection, schedule: Q01DX009 (ip), vehicle: saline) was 102 % of control, the T/C [1] was 120 % of control and the T/C [2] was 113 % of control. The T/C (dose: 400.0 mg/kg/injection, schedule: Q01DX009 (ip), vehicle: saline) was 98 % of control.
With `O=C(O)/C(=C/c1ccc(Cl)cc1)c1ccccc1` the T/C [3] was 91 % of control and the T/C [4] was 94 % of control.
`CCCCCCCCCCCCCCCC[N+](C)(C)c1ccccc1` was tested, and the T/C (dose: 1.56 mg/kg/injection, schedule: Q04DX003 (ip), vehicle: saline with Tween-80) was 110 % of control, the T/C (dose: 3.13 mg/kg/injection, schedule: Q04DX003 (ip), vehicle: saline with Tween-80) was 115 % of control and the T/C [5] was 108 % of control.
`c1ccc(-c2[nH]c3ccccc3c2-c2ccccc2)cc1` was tested, and the T/C (dose: 100.0 mg/kg/injection, schedule: Q01DX001 (ip), vehicle: Klucel (hydroxypropylcellulose) (HPC)) was 109 % of control, the T/C (dose: 200.0 mg/kg/injection, schedule: Q01DX001 (ip), vehicle: Klucel (hydroxypropylcellulose) (HPC)) was 113 % of control and the T/C (dose: 400.0 mg/kg/injection, schedule: Q01DX001 (ip), vehicle: Klucel (hydroxypropylcellulose) (HPC)) was 122 % of control.
With `CN=C(NC#N)NCCSCc1nc[nH]c1C` the T/C (dose: 12.5 mg/kg/injection, schedule: Q01DX005 (ip), vehicle: Klucel (hydroxypropylcellulose) (HPC)) was 96 % of control, the T/C (dose: 25.0 mg/kg/injection, schedule: Q01DX005 (ip), vehicle: Klucel (hydroxypropylcellulose) (HPC)) was 92 % of control and 116 % of control and the T/C (dose: 50.0 mg/kg/injection, schedule: Q01DX005 (ip), vehicle: Klucel (hydroxypropylcellulose) (HPC)) was 101 % of control. For the same compound, the T/C (dose: 100.0 mg/kg/injection, schedule: Q01DX005 (ip), vehicle: Klucel (hydroxypropylcellulose) (HPC)) was 93 % of control and 101 % of control, the T/C (dose: 200.0 mg/kg/injection, schedule: Q01DX005 (ip), vehicle: Klucel (hydroxypropylcellulose) (HPC)) was 118 % of control and the T/C (dose: 400.0 mg/kg/injection, schedule: Q01DX005 (ip), vehicle: Klucel (hydroxypropylcellulose) (HPC)) was 95 % of control.
`COc1cc(N(CCCl)CCCl)ccc1C=Nc1ccccc1C(=O)O` was tested, and the T/C (dose: 5.0 mg/kg/injection, schedule: Q01DX009 (ip), vehicle: saline) was 227 % of control, the T/C (dose: 11.9 mg/kg/injection, schedule: Q04DX003 (ip), vehicle: saline with Tween-80) was 237 % of control and the T/C (dose: 18.0 mg/kg/injection, schedule: Q04DX003 (ip), vehicle: saline with Tween-80) was 254 % of control. For the same compound, the T/C (dose: 27.0 mg/kg/injection, schedule: Q04DX003 (ip), vehicle: saline with Tween-80) was 116 % of control.
In the case of `CC1(C)C2CC3C(=CCCC3C#N)C1C2` (stereo unspecified), the T/C (dose: 100.0 mg/kg/injection, schedule: Q04DX003 (ip), vehicle: Klucel (hydroxypropylcellulose) (HPC)) is reported as 100 % of control, the T/C (dose: 200.0 mg/kg/injection, schedule: Q04DX003 (ip), vehicle: Klucel (hydroxypropylcellulose) (HPC)) is reported as 100 % of control and the T/C (dose: 400.0 mg/kg/injection, schedule: Q04DX003 (ip), vehicle: Klucel (hydroxypropylcellulose) (HPC)) is reported as 100 % of control.
For `CCC(CO)N1CNC(=S)NC1` (stereo unspecified), the T/C [1] was 97 % of control, the T/C (dose: 100.0 mg/kg/injection, schedule: Q01DX009 (ip), vehicle: saline) was 92 % of control and the T/C [2] was 108 % of control.
`CN(Cc1ccc2nc(N)nc(N)c2c1)c1ccc(C(=O)NC(CCC(=O)O)C(=O)O)cc1` (stereo unspecified) was tested, and the T/C (dose: 0.03 mg/kg/injection, schedule: Q01DX009 (ip), vehicle: saline) was 172 % of control, the T/C (dose: 0.05 mg/kg/injection, schedule: Q01DX009 (ip), vehicle: saline) was 194 % of control and the T/C (dose: 0.09 mg/kg/injection, schedule: Q01DX009 (ip), vehicle: saline) was 200 % of control and 218 % of control. For the same compound, the T/C (dose: 0.15 mg/kg/injection, schedule: Q01DX009 (ip), vehicle: saline) was 86 % of control and 190 % of control and 209 % of control, the T/C (dose: 0.22 mg/kg/injection, schedule: Q01DX009 (ip), vehicle: saline) was 223 % of control and the T/C (dose: 0.31 mg/kg/injection, schedule: Q01DX009 (ip), vehicle: saline) was 110 % of control. For the same compound, the T/C (dose: 1.25 mg/kg/injection, schedule: Q04DX003 (ip), vehicle: saline) was 218 % of control, the T/C (dose: 1.65 mg/kg/injection, schedule: Q04DX003 (ip), vehicle: saline) was 154 % of control and the T/C (dose: 2.5 mg/kg/injection, schedule: Q04DX003 (ip), vehicle: saline) was 268 % of control and 159 % of control and 181 % of control. The T/C (dose: 3.75 mg/kg/injection, schedule: Q04DX003 (ip), vehicle: saline) was 86 % of control and 222 % of control, the T/C (dose: 5.0 mg/kg/injection, schedule: Q04DX003 (ip), vehicle: saline) was 104 % of control and the T/C (dose: 5.7 micrograms/kg/injection, schedule: Q01DX009 (ip), vehicle: saline) was 116 % of control. The T/C (dose: 8.5 micrograms/kg/injection, schedule: Q01DX009 (ip), vehicle: saline) was 116 % of control, the T/C (dose: 13.0 micrograms/kg/injection, schedule: Q01DX009 (ip), vehicle: saline) was 262 % of control and the T/C (dose: 19.0 micrograms/kg/injection, schedule: Q01DX009 (ip), vehicle: saline) was 174 % of control.
For `CCC(CN(C)C)C(=O)c1ccccc1` (stereo unspecified), the T/C [5] was 100 % of control, the T/C (dose: 50.0 mg/kg/injection, schedule: Q04DX003 (ip), vehicle: saline with Tween-80) was 95 % of control and the T/C (dose: 100.0 mg/kg/injection, schedule: Q01DX001 (ip), vehicle: saline with Tween-80) was 100 % of control. For the same compound, the T/C (dose: 100.0 mg/kg/injection, schedule: Q04DX003 (ip), vehicle: saline with Tween-80) was 91 % of control and 95 % of control and the T/C (dose: 200.0 mg/kg/injection, schedule: Q01DX001 (ip), vehicle: saline with Tween-80) was 100 % of control.
In the case of `COc1ccc(Br)cc1/C=C/[N+](=O)[O-]`, the T/C [6] is reported as 87 % of control.
With `CCOC(=O)NC1=C(N2CC2C)C(=O)C(NC(=O)OCC)=C(N2CC2C)C1=O` (stereo unspecified) the T/C (dose: 3.12 mg/kg/injection, schedule: Q01DX001 (ip), vehicle: Klucel (hydroxypropylcellulose) (HPC)) was 123 % of control and the T/C (dose: 12.5 mg/kg/injection, schedule: Q01DX001 (ip), vehicle: Klucel (hydroxypropylcellulose) (HPC)) was 113 % of control.
For `COC(=O)C(Sc1ccccc1N)C1SC(=S)N(Cc2ccccc2)C1=O` (stereo unspecified), the T/C [6] was 95 % of control, the T/C [3] was 104 % of control and the T/C [4] was 113 % of control.
`C=C(CNC(C)(C)C)C(=O)c1ccccc1` was tested, and the T/C (dose: 3.13 mg/kg/injection, schedule: Q01DX009 (ip), vehicle: saline) was 116 % of control and the T/C (dose: 6.25 mg/kg/injection, schedule: Q01DX009 (ip), vehicle: saline) was 116 % of control.
With `CN(CCCN(C)N=Nc1ccccc1C(=O)O)N=Nc1ccccc1C(=O)O` the T/C (dose: 100.0 mg/kg/injection, schedule: Q04DX003 (ip), vehicle: saline) was 92 % of control, the T/C (dose: 200.0 mg/kg/injection, schedule: Q04DX003 (ip), vehicle: saline) was 88 % of control and the T/C (dose: 400.0 mg/kg/injection, schedule: Q04DX003 (ip), vehicle: saline) was 92 % of control.
For `CC(C)c1ccc2c(c1)CC[C@H]1[C@](C)(CN=C(N)CCl)CCC[C@]21C`, the T/C (dose: 1.56 mg/kg/injection, schedule: Q01DX009 (ip), vehicle: Klucel (hydroxypropylcellulose) (HPC)) was 110 % of control, the T/C (dose: 3.13 mg/kg/injection, schedule: Q01DX009 (ip), vehicle: Klucel (hydroxypropylcellulose) (HPC)) was 112 % of control and the T/C (dose: 6.25 mg/kg/injection, schedule: Q01DX009 (ip), vehicle: Klucel (hydroxypropylcellulose) (HPC)) was 114 % of control.
